Experimental data: patent EP4574818A1, “ONIUM SALT OF NITROGEN-CONTAINING HETEROARYL COMPOUND AND PEST CONTROL AGENT” (priority 2022, dated 2024)
Read-outs that look alike come from different tables or passages of the source.

Columns and labels:
Type in all cases: in vivo
Mythimna separata = assay: Efficacy test against Mythimna separata (treated artificial feed); conditions: 1 µl of emulsion (I) (5% by mass active ingredient) mixed with 0.8 g artificial feed; second-instar larvae; 25°C; after five days
Method: (§1) 5 parts by mass of a compound of the present invention, 93.6 parts by mass of dimethylformamide, and 1.4 parts by mass of polyoxyethylene alkyl aryl ether were mixed and dissolved to obtain an emulsion (I) containing 5% by mass of the active ingredient.
0.8 g of commercially-available artificial feed (Insect LFS, manufactured by Nosan Corporation) and 1 µl of the emulsion (I) were mixed well, and then 0.2 g of the mixture per treated area was packed into plastic test containers (each having a capacity of 1.4 ml) as test feeds.
Two second-instar larvae of Mythimna separata were left per treated area, and then the test containers were sealed with plastic covers. The test containers were placed in a thermostatic chamber at 25°C, and, after five days had passed therefrom, the mortality and the feed intake were measured. The test was repeated twice.
In addition, the test was carried out under the same conditions as described above, except that the emulsion (II) was used instead of the emulsion (I), and evaluated as a solvent control area.

Spodoptera litura = assay: Efficacy test against Spodoptera litura (cabbage leaf immersion); conditions: 144 h, read-out: mortality of Spodoptera litura
Method: A cabbage leaf was immersed in the diluted solution for 30 seconds. The cabbage leaf was air-dried and then put in a petri dish, followed by leaving five second-instar larvae of Spodoptera litura therein. The petri dish was placed in a thermostatic chamber at a temperature of 25°C and a humidity of 60%. After six days had passed from leaving the larvae, life or death was assessed and the mortality was calculated. The test was repeated twice.

Phyllotreta striolata = assay: Efficacy test against Phyllotreta striolata (sprayed bok-choy seedling); conditions: 168 h, read-out: mortality against the adults of Phyllotreta striolata
Method: as §1
The emulsion (I) was diluted with water such that the concentration of the compound of the present invention became 125 ppm by mass. The diluted solution was sprayed to a bok-choy seedling (at the 7th leafe stage) planted in a 3-sun pot. After air-dried, the bok-choy seedling was placed in a plastic cup, and ten adults of Phyllotreta striolata were left therein. The plastic cup was placed in a thermostatic chamber at a temperature of 25°C and a humidity of 65%. After seven days had passed from leaving the adults, life or death was assessed and the mortality was calculated. The test was repeated twice.

Ctenocephalides felis = assay: Efficacy test against Ctenocephalides felis (thin film in glass vial); conditions: 96 h, 100 µL of 16 ppm by mass isopropanol solution dried as thin film in glass vial, adults, 25°C, after four days
Method: The compound of the present invention was dissolved in isopropanol to prepare a drug solution having a concentration of 16 ppm by mass. 100 µL of the drug solution was coated on the inner surface of the bottom of a glass vial container (φ […]), and then isopropanol was vaporized by air-drying to form a thin film of the compound of the present invention. In the vial container, four adults (a mixture of males and females) of cat flea (Ctenocephalides felis) were left. The lid was put on the vial container, and the vial container was placed in a thermostatic chamber at 25°C. After four days had passed from leaving the adults, life or death of Ctenocephalides felis was assessed and the mortality was calculated.

Plutella xylostella = assay: Efficacy test against Plutella xylostella (cabbage leaf immersion); conditions: 72 h
Method: The emulsion (II) was diluted with water at the same dilution ratio as the diluted solution (I), thereby obtaining a diluted solution (II). A cabbage leaf was immersed in each of the diluted solutions for 30 seconds. Each cabbage leaf after immersion was air-dried and then put in a petri dish, followed by leaving five second-instar larvae of Plutella xylostella therein. The petri dishes were placed in a thermostatic chamber at a temperature of 25°C and a humidity of 60%. After three days had passed from leaving the larvae, life or death was assessed and the mortality was calculated. The test was repeated twice.

[1] = tested on: Haemophysalis longicornis; assay: Efficacy test against Haemophysalis longicornis (thin film in glass test tube); conditions: 100 µL of 16 ppm by mass isopropanol solution dried as thin film in glass test tube; nymphs; 25°C; after four days; 5760 min
Method: The compound of the present invention was dissolved in isopropanol to prepare a drug solution having a concentration of 16 ppm by mass. 100 µL of the drug solution was coated on the inner surface of the bottom of a glass test tube (φ 12 mm), and then isopropanol was vaporized by air-drying to form a thin film of the compound of the present invention. In the test tube, four nymphs of Haemophysalis longicornis were left. The lid was put on the test tube, and the test tube was placed in a thermostatic chamber at 25°C. After four days had passed from leaving the nymphs, life or death of Haemophysalis longicornis was assessed and the mortality was calculated.

[2] = 125 ppm by mass, cabbage leaf immersed 30 seconds, second-instar larvae, 25°C, humidity 60%, after six days
[3] = 125 ppm by mass, sprayed to bok-choy seedling, adults, 25°C, humidity 65%, after seven days
[4] = 125 ppm by mass, cabbage leaf immersed 30 seconds, second-instar larvae of Plutella xylostella, 25°C, humidity 60%, after three days, read-out: mortality

| SMILES | mortality of Mythimna separata or feed intake relative to the feed intake at the solvent control area (Mythimna separata) | mortality at 125 ppm (Spodoptera litura; [2]) [%] | mortality at 125 ppm (Phyllotreta striolata; [3]) [%] | mortality at 16 ppm (Ctenocephalides felis) [%] | mortality at 125 ppm (Plutella xylostella; [4]) [%] | mortality at 125 ppm (Spodoptera litura) [%] | mortality at 125 ppm (Phyllotreta striolata) [%] | mortality at 125 ppm (Plutella xylostella; Plutella xylostella) [%] | mortality against Haemophysalis longicornis [1] [%] |
| --- | --- | --- | --- | --- | --- | --- | --- | --- | --- |
| O=C([N-][n+]1cccc(F)c1)c1cc(Cl)nc(Oc2ccc(OC(F)(F)F)cc2)c1 [Compound 1] | 100% mortality of Mythimna separata or 10% or less of the feed intake | ≥ 80 | ≥ 80 | ≥ 80 | ≥ 80 |  |  |  |  |
| Cn1c[n+]([N-]C(=O)c2cc(Cl)nc(Oc3ccc(OC(F)(F)F)cc3)c2)cn1 [Compound 2] | 100% mortality of Mythimna separata or 10% or less of the feed intake | ≥ 80 |  |  |  |  |  |  |  |
| O=C([N-][n+]1ccccc1)c1cc(Cl)nc(Oc2ccc(OC(F)(F)C(F)(F)F)cc2)c1 [Compound 3] | 100% mortality of Mythimna separata or 10% or less of the feed intake | ≥ 80 | ≥ 80 |  | ≥ 80 |  |  |  |  |
| O=C([N-][n+]1ccccc1)c1cc(Cl)nc(Oc2ccc(OC(F)(F)C(F)F)cc2)c1 [Compound 4] | 100% mortality of Mythimna separata or 10% or less of the feed intake | ≥ 80 |  |  | ≥ 80 |  |  |  |  |
| O=C([N-][n+]1cccc(F)c1)c1cc(Cl)nc(Oc2ccc(OC(F)(F)C(F)(F)F)cc2)c1 [Compound 7] |  | ≥ 80 |  | ≥ 80 | ≥ 80 |  |  |  |  |
| CCn1c[n+]([N-]C(=O)c2cc(Cl)nc(Oc3ccc(OC(F)(F)C(F)(F)F)cc3)c2)cn1 [Compound 10] |  | ≥ 80 | ≥ 80 | ≥ 80 | ≥ 80 |  |  |  |  |
| CC(C)n1c[n+]([N-]C(=O)c2cc(Cl)nc(Oc3ccc(OC(F)(F)C(F)(F)F)cc3)c2)cn1 [Compound 19] |  | ≥ 80 | ≥ 80 |  | ≥ 80 |  |  |  |  |
| O=C([N-][n+]1ccccc1)c1cc(Cl)nc(Oc2ccc(OC(F)(F)C(F)OC(F)(F)C(F)(F)C(F)(F)F)cc2)c1 (centres unmarked) [Compound 20] |  |  |  |  |  | ≥ 80 | ≥ 80 | ≥ 80 |  |
| CCn1c[n+]([N-]C(=O)c2cc(Cl)nc(Oc3ccc(OC(F)(F)C(F)OC(F)(F)C(F)(F)C(F)(F)F)cc3)c2)cn1 (centres unmarked) [Compound 21] |  |  |  |  |  | ≥ 80 | ≥ 80 | ≥ 80 |  |
| O=C([N-][n+]1ccccc1)c1cc(Cl)nc(Oc2ccc(OC(F)(F)C(F)OC(F)(F)C(F)(F)C(F)(F)OC(F)(F)F)cc2)c1 (centres unmarked) [Compound 22] |  |  |  |  |  | ≥ 80 | ≥ 80 | ≥ 80 |  |
| CCn1c[n+]([N-]C(=O)c2cc(Cl)nc(Oc3ccc(OC(F)(F)C(F)OC(F)(F)C(F)(F)C(F)(F)OC(F)(F)F)cc3)c2)cn1 (centres unmarked) [Compound 23] |  |  |  |  |  | ≥ 80 | ≥ 80 | ≥ 80 |  |
| O=C([N-][n+]1ccccc1)c1cc(Cl)nc(Oc2ccc(SC(F)(F)F)cc2)c1 [Compound 25, (2-chloro-6-(4-((trifluoromethyl)thio)phenoxy)isonicotinoyl) (pyridin-1-ium-1-yl)amide] |  | ≥ 80 | ≥ 80 |  | ≥ 80 |  |  |  |  |
| CCn1c[n+]([N-]C(=O)c2cc(Cl)nc(Oc3ccc(OC(F)(F)F)cc3)c2)cn1 [Compound 165, (2-chloro-6-(4-(trifluoromethoxy)phenoxy)isonicotinoyl)(1-ethyl-1H-1,2,4-triazol-4-ium-4-yl)amide] | 100% mortality of Mythimna separata or 10% or less of the feed intake | ≥ 80 |  |  | ≥ 80 |  |  |  |  |
| O=C([N-][n+]1ccccc1)c1cc(Cl)nc(Oc2ccc(OC(F)(F)F)cc2)c1 [Compound 175, (2-chloro-6-(4-(trifluoromethoxy)phenoxy)isonicotinoyl)(pyridin-1-ium-1-yl)amide] | 100% mortality of Mythimna separata or 10% or less of the feed intake | ≥ 80 | ≥ 80 | ≥ 80 | ≥ 80 |  |  |  | ≥ 80 |
| O=C([N-][n+]1ccccc1)c1cc(Oc2ccc(OC(F)(F)F)cc2)nc(-c2ccc(F)cc2)c1 [Compound 207] | 100% mortality of Mythimna separata or 10% or less of the feed intake | ≥ 80 |  |  | ≥ 80 |  |  |  |  |
| O=C([N-][n+]1ccccc1)c1cc(Cl)nc(Oc2ccc(C3CC3(Cl)Cl)cc2)c1 (centres unmarked) [Compound 211] | 100% mortality of Mythimna separata or 10% or less of the feed intake |  | ≥ 80 |  |  |  |  |  |  |
| O=C([N-][n+]1ccccc1)c1cc(Oc2ccc(OC(F)(F)C(F)(F)F)cc2)nc(C2CC2)c1 [Compound 215, (2-cyclopropyl-6-(4-(perfluoroethoxy)phenoxy)isonicotinoyl)(pyridin-1-ium-1-yl)amide] | 100% mortality of Mythimna separata or 10% or less of the feed intake | ≥ 80 |  |  | ≥ 80 |  |  |  |  |
| CCn1c[n+]([N-]C(=O)c2cc(I)nc(Oc3ccc(OC(F)(F)C(F)(F)F)cc3)c2)cn1 [Compound 218] |  | ≥ 80 | ≥ 80 |  | ≥ 80 |  |  |  |  |
| O=C([N-][n+]1ccccc1)c1cc(I)nc(Oc2ccc(OC(F)(F)C(F)(F)F)cc2)c1 [Compound 219, (2-iodo-6-(4-(perfluoroethoxy)phenoxy)isonicotinoyl)(pyridin-1-ium-1-yl)amide] |  | ≥ 80 | ≥ 80 |  | ≥ 80 |  |  |  |  |
